Measurements: publication PMC10914731, “Homo-BacPROTAC-induced degradation of ClpC1 as a strategy against drug-resistant mycobacteria” (Nature Communications, 2024)
Converted amounts (≈) assume the structure as drawn. “And” between values parts separate entries of the source, which are not always exact repeats. Equal entries are not always repeated. Where two headings read alike, the source gives them in different places. Where a SMILES comes first, the peptide text is derived from it. [ ]: non-standard residue; d: D form. Trp(1-(1,1-Me2-allyl)) = C=CC(C)(C)n1cc(C[C@H](N)C(=O)O)c2ccccc21; Ala(3R-Me,3-isobutenyl) = CC(C)=C[C@@H](C)[C@H](N)C(=O)O; NMeLeu(5-OH,4R) = CN[C@@H](C[C@@H](C)CO)C(=O)O; Phe(βR-OMe) = CO[C@H](c1ccccc1)[C@H](N)C(=O)O; NMeL = CN[C@@H](CC(C)C)C(=O)O

Key:
[1] = target: ClpC1 NTD protein (M. tuberculosis) (Mycobacterium tuberculosis, UniProt P9WPC9); test: biochemical; type: binding
Chain of ClpC1 NTD protein (M. tuberculosis) (P9WPC9 1-156, looked up, natural form): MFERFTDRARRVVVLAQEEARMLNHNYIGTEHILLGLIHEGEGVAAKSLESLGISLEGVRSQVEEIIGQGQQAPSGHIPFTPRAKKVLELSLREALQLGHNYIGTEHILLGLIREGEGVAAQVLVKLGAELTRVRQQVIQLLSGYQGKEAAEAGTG

[2] = type: in vitro ADME, Mice; settings: for Microsomal Stability Mice: clearance in microsomes
Method in brief: (§1)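 Compound at 1 µmol/l incubated with 0.5 mg/ml liver microsomes in 100 mM Tris-HCl pH 7.5, 6.5 mM MgCl2, 1 mM NADPH, 37 °C; acetonitrile-quenched at multiple time points, measured by HPLC-MS/MS. First-order half-lives converted to clearance as %Qh via well-stirred liver model.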

[3] = type: in vitro ADME, Rat; settings: for Microsomal Stability Rat: clearance in microsomes
Method in brief: as §1

[4] = Microsomal stability, human; type: in vitro ADME; settings: for Microsomal Stability Human: clearance in microsomes
Method in brief: as §1

[5] = system: M. tuberculosis H37Rv (ATCC 27294); test: microbe, parasite or virus in culture; type: cell-based
Msm 607 = test: microbe, parasite or virus in culture; type: cell-based; settings: for Msm 607 MIC: single determinations
[6] = system: Mtb H37Rv in THP-1 macrophages; test: Intracellular MIC assay in THP-1 macrophages; type: cell-based, Mycobacterium tuberculosis; design: Emax: unit not given here
in vitro = settings: human
Method in brief: (§2)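 Permeability across Caco-2 monolayers was measured in both directions, apical-to-basolateral and basolateral-to-apical, in 10^-6 cm s-1. Efflux ratio = P(B−A)/P(A−B). Intrinsic permeability is the mean of P(A−B) and P(B−A).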

Caco-2 monolayers = test: in vitro; settings: human, Caco-2
Method in brief: as §2

[7] = Hepatocyte stability, mice; type: in vitro ADME; settings: mouse, pH 7.4
Method in brief: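 Clearance expressed as % of liver blood flow (% Qh), derived from half-life via the well-stirred liver model. Compound at 1 µM final was incubated up to 6 h with ~1 million cells/mL hepatocytes in 50% serum buffer, 37 °C, pH 7.4.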

[8] = type: in vitro ADME, Rat; settings: rat, pH 7.4
[9] = type: in vitro ADME, Human; settings: human, pH 7.4
[10] = target: His6-tagged ClpC1-NTD substrate, M. smegmatis ClpC1P1P2 (UniProt A0R574+P9WPC9); test: biochemical; type: biochemical; settings: for DC50: Msm; for % Response / ClpC1-NTD peak area: Figure 4a source data, well replicates
Chain of His6-tagged ClpC1-NTD substrate, M. smegmatis ClpC1P1P2 (P9WPC9 1-156, looked up, natural form): as above
Chain of His6-tagged ClpC1-NTD substrate, M. smegmatis ClpC1P1P2 (A0R574 whole entry): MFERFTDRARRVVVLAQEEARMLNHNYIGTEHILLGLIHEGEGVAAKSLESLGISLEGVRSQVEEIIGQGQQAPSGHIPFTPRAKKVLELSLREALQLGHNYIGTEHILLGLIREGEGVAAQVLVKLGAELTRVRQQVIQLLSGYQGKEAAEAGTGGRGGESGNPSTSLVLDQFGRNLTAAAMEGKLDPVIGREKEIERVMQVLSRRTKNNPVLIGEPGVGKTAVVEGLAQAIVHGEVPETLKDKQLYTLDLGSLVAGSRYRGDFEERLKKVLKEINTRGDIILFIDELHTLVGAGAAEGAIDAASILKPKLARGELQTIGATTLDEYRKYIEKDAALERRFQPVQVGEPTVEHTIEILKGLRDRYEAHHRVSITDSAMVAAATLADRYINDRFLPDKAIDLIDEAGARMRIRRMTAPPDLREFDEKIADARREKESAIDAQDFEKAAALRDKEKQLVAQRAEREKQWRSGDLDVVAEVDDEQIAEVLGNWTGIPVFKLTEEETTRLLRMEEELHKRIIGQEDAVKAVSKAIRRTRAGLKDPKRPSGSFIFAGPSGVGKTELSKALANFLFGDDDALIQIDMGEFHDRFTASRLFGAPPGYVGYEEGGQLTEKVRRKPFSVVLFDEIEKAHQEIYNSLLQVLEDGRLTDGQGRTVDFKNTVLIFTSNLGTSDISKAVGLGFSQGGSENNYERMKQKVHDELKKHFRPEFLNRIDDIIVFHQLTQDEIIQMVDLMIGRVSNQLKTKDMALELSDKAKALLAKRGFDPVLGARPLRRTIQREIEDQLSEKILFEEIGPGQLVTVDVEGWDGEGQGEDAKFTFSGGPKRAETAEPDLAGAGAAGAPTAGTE

[11] = target: ClpC1-NTD substrate, M. tuberculosis ClpC1P1P2 (Mycobacterium tuberculosis, UniProt P9WPC9); test: biochemical; type: biochemical; settings: Mtb
Chain of ClpC1-NTD substrate, M. tuberculosis ClpC1P1P2 (P9WPC5 whole entry): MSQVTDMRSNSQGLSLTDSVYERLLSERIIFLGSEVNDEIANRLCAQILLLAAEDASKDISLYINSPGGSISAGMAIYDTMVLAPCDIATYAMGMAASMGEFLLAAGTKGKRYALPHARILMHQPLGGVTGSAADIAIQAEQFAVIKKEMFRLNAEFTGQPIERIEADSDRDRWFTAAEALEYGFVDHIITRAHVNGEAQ
Chain of ClpC1-NTD substrate, M. tuberculosis ClpC1P1P2 (P9WPC9 whole entry): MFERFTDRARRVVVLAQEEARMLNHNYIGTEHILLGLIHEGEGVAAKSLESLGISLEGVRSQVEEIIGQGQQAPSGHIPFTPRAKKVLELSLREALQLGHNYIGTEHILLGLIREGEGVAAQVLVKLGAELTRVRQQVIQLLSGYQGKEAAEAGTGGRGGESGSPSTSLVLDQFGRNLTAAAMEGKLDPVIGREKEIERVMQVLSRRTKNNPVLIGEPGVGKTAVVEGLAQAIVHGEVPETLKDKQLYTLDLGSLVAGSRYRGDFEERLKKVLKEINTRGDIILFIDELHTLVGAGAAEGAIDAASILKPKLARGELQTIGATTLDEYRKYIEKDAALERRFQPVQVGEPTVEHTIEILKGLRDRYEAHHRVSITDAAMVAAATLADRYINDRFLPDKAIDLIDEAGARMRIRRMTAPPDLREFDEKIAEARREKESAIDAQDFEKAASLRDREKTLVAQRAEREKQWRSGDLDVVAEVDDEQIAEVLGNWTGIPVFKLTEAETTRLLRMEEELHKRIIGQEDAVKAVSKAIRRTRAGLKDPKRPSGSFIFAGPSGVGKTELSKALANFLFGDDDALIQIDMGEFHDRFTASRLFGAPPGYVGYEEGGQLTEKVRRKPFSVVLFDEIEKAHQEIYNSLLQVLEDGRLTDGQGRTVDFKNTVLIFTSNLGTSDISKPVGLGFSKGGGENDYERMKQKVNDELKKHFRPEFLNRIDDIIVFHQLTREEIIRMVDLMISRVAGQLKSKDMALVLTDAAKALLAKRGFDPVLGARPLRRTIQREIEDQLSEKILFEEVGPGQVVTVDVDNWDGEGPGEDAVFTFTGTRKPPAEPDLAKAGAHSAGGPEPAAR
Chain of ClpC1-NTD substrate, M. tuberculosis ClpC1P1P2 (P9WPC3 whole entry, further chain): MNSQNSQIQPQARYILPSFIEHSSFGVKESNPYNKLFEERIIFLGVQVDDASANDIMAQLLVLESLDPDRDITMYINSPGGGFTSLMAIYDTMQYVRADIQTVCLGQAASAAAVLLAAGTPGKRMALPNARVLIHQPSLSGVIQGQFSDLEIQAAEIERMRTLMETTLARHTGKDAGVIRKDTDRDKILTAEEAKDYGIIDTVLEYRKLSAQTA

[12] = target: endogenous ClpC1 in Msm #607 cells (Mycolicibacterium smegmatis, UniProt A0R574); type: cell-based, M. smegmatis
Chain of endogenous ClpC1 in Msm #607 cells (A0R574 whole entry): as the sequence (A0R574 whole entry) above

[13] = SPR (Supplementary Table 1), read-out: KD ClpC1-NTD Mean ± SD
[14] = SPR, single independent measurements, read-out: KD ClpC1-NTD
[15] = Mycobacterium tuberculosis, Mtb H37Rv (Supplementary Table 2), read-out: MIC Mtb
[16] = Mycobacterium tuberculosis, single determinations, read-out: Mtb MIC
[17] = single determinations, read-out: Mtb MIC
[18] = Mycolicibacterium smegmatis, 607, read-out: MIC Msm 607
[19] = Mycolicibacterium smegmatis, 607, read-out: Msm 607 MIC, single determinations
[20] = mean of the measurements, read-out: DC50, Mean

CO[C@H](c1ccccc1)[C@@H]1NC(=O)[C@H](C)NC(=O)[C@H](C[C@@H](C)CO)N(C)C(=O)[C@H](Cc2cn(Cc3cn(CCOCCOCCOCCn4cc(Cn5cc(C[C@@H]6NC(=O)[C@H](C(C)C)NC(=O)[C@H](CC(C)C)N(C)C(=O)[C@H](C(C)C)NC(=O)[C@H]([C@H](OC)c7ccccc7)NC(=O)[C@H](C)NC(=O)[C@H](C[C@@H](C)CO)N(C)C6=O)c6ccccc65)nn4)nn3)c3ccccc23)NC(=O)[C@H](C(C)C)NC(=O)[C@H](CC(C)C)N(C)C(=O)[C@H](C(C)C)NC1=O [Compound 7]
Kd [1, 13]: 0.46 ± 0.05 nM | koff ([1]; SPR dissociation rate constant, read-out: koff ClpC1-NTD Mean ± SD): 0.001 s⁻¹ | koff ClpC1-NTD ([1]; SPR, single independent measurements): 0.001 s⁻¹ and 0.0008 s⁻¹ and 0.0006 s⁻¹ | Kd [1, 14]: 0.473 nM and 0.459 nM and 0.508 nM and 0.398 nM | koff ([1]; SPR, single independent measurements, read-out: koff ClpC1-NTD): 0.001 s⁻¹ | Microsomal Stability Mouse QH [2]: 58.9% and 48.2% | Microsomal Stability Mice [2]: 53 %Qh | Microsomal Stability Rat QH [3]: 41.7% and 36.7% | Microsomal Stability Rat [3]: 40 %Qh | Microsomal Stability Human QH [4]: > 88.4% and 86.5% | Microsomal Stability Human [4]: 88 %Qh | MIC [5, 15]: 0.1 µM (≈ 0.213 µg/mL) | MIC [5, 16]: 0.098 µM (≈ 0.208 µg/mL) | MIC [5, 17]: 0.156 µM (≈ 0.332 µg/mL) | MIC (Msm 607; [18]): 1.4 ± 0.2 µM (≈ 2.98 µg/mL) | MIC (Msm 607; [19]): 1.56 µM (≈ 3.32 µg/mL) | Msm 607 MIC (Msm 607): 1.250 µM | Emax [6]: 1.22 | intracellular viable mycobacteria ([6]; 0.19µM, Day 4, well replicates): 5.34 log10 cfu/ml | intracellular viable mycobacteria ([6]; 0.19µM, Day 7, well replicates): 5.68 log10 cfu/ml | intracellular viable mycobacteria ([6]; 0.781µM, Day 4, well replicates): 4.98 log10 cfu/ml | intracellular viable mycobacteria ([6]; 0.781µM, Day 7, well replicates): 4.98 log10 cfu/ml | intracellular viable mycobacteria ([6]; 3.125µM, Day 4, well replicates): 4.75 log10 cfu/ml | intracellular viable mycobacteria ([6]; 3.125µM, Day 7, well replicates): 4.56 log10 cfu/ml | intracellular viable mycobacteria ([6]; 50µM, Day 4, well replicates): 4.39 log10 cfu/ml and 4.51 log10 cfu/ml | intracellular viable mycobacteria ([6]; 50µM, Day 7, well replicates): 3.96 log10 cfu/ml

C=CC(C)(C)n1cc(C[C@@H]2NC(=O)[C@H]([C@H](C)C=C(C)C)NC(=O)[C@H](CC(C)C)N(C)C(=O)[C@H](C(C)C)NC(=O)[C@H]([C@H](OC)c3ccccc3)NC(=O)[C@H](C)NC(=O)[C@H](C[C@@H](C)CO)N(C)C2=O)c2ccccc21 [dCymC] (cyclo([Trp(1-(1,1-Me2-allyl))][NMeLeu(5-OH,4R)]A[Phe(βR-OMe)]V[NMeL][Ala(3R-Me,3-isobutenyl)]))
Kd [1, 13]: 1.1 ± 0.4 nM | Kd ([1]; SPR, individual measurements (source data), read-out: KD ClpC1-NTD): 2.02 nM and 1.58 nM and 1.15 nM (5×) and 0.995 nM and 1.06 nM (3×) and 1.21 nM (2×) and 1.23 nM (3×) and 0.859 nM and 1.01 nM (4×) and 1.13 nM (2×) and 1.16 nM (5×) and 0.401 nM and 0.981 nM and 0.95 nM and 1.03 nM and 0.866 nM and 1.14 nM (2×) and 1.54 nM and 0.99 nM and 1.26 nM and 1.53 nM (2×) and 1.07 nM (3×) and 1.05 nM (3×) and 1.09 nM (4×) and 1.84 nM and 1.39 nM (2×) and 1.44 nM and 1.47 nM (2×) and 0.934 nM and 1.1 nM (3×) and 0.723 nM and 2.22 nM and 0.892 nM and 0.91 nM and 1.75 nM (3×) and 0.741 nM and 0.702 nM and 1.25 nM (2×) and 0.729 nM and 0.721 nM and 1.67 nM and 1.63 nM and 1.37 nM and 1.92 nM and 1.99 nM and 1.17 nM and 1.08 nM (3×) and 0.583 nM and 1.11 nM (4×) and 0.666 nM and 0.718 nM and 0.833 nM and 0.74 nM and 0.783 nM and 0.822 nM and 0.734 nM and 0.671 nM and 1.6 nM and 1.52 nM (2×) and 1.45 nM (3×) and 1.33 nM (3×) and 1.28 nM (2×) and 1.31 nM and 0.952 nM (2×) and 0.854 nM and 1.2 nM (3×) and 0.728 nM and 0.717 nM and 1.59 nM and 1.51 nM and 0.903 nM and 0.9 nM (2×) and 0.985 nM and 1.18 nM and 0.911 nM and 0.904 nM and 1.12 nM and 0.85 nM and 0.908 nM and 1.02 nM and 3.37 nM and 0.912 nM and 0.781 nM and 0.973 nM and 0.999 nM and 0.958 nM and 0.76 nM and 0.886 nM and 0.843 nM and 1.04 nM (4×) and 1.24 nM and 0.917 nM and 0.907 nM and 0.838 nM | Kd [1, 14]: 1.15 nM (5×) and 1.06 nM (3×) and 1.21 nM (2×) and 1.23 nM (3×) and 1.01 nM (4×) and 1.13 nM (2×) and 1.16 nM (5×) and 1.14 nM (2×) and 1.53 nM (2×) and 1.07 nM (3×) and 1.05 nM (3×) and 1.09 nM (4×) and 1.39 nM (2×) and 1.47 nM (2×) and 1.1 nM (3×) and 1.75 nM (3×) and 1.25 nM (2×) and 1.08 nM (3×) and 1.11 nM (4×) and 1.52 nM (2×) and 1.45 nM (3×) and 1.33 nM (3×) and 1.28 nM (2×) and 0.952 nM (2×) and 1.2 nM (3×) and 0.9 nM (2×) and 1.04 nM (4×) | Kd ([1]; SPR, read-out: ClpC1-NTD KD Mean ± SD): 1.1 ± 0.4 nM | efflux ratio (in vitro; Caco-2): 3 | Papp B→A (in vitro; Caco-2, CACO permeability PEBA): 2.6 ×10⁻⁶ cm/s | Papp A→B (in vitro; Caco-2, Caco-2 permeability P (A-B)): 1.3 ×10⁻⁶ cm/s | Papp B→A (in vitro; Caco-2, Caco-2 permeability P (B-A)): 3.1 ×10⁻⁶ cm/s | Caco-2 Int. Perm (Caco-2 monolayers): 2.2 | Influence of N-methylation on permeability (Caco-2 monolayers): 1.6 | Microsomal Stability Mouse QH [2]: 56.100% | Microsomal Stability Mice [2]: 56 %Qh | Microsomal Stability Rat QH [3]: 38.300% | Microsomal Stability Rat [3]: 38 %Qh | Microsomal Stability Human QH [4]: 65.700% | Microsomal Stability Human [4]: 66 %Qh | Hepatocyte Mice [7]: 46 %Qh | Hepatocyte Rat [8]: 55 %Qh | Hepatocyte Stability Rat QH [8]: 55.000% | Hepatocyte Human [9]: 36 %Qh | Hepatocyte Stability Human QH [9]: 38.000% | MIC ([5]; Mycobacterium tuberculosis, M. tuberculosis H37Rv strain, read-out: MIC Mtb H37Rv Mean ± SD): 0.4 ± 0.1 µM (≈ 0.405 µg/mL) | MIC [5, 15]: 0.4 ± 0.1 µM (≈ 0.405 µg/mL) | MIC ([5]; Mycobacterium tuberculosis, individual measurements (source data), read-out: Mtb MIC): 0.39 µM (≈ 0.394 µg/mL) | MIC [5, 16]: 0.39 µM (≈ 0.394 µg/mL) | MIC ([5]; individual measurements (source data), read-out: Mtb MIC): 0.390 µM and 0.600 µM and 0.300 µM | MIC [5, 17]: 0.600 µM and 0.300 µM | MIC (Msm 607; [18]): 2.8 ± 0.4 µM (≈ 2.83 µg/mL) | MIC (Msm 607; [19]): 3.12 µM (≈ 3.16 µg/mL) | Msm 607 MIC (Msm 607): 2.500 µM | DC50 ([10]; Measurement 1-6, read-out: DC50, single measurements): > 100 µM | DC50 [10, 20]: > 100 µM | degradation of the His6-tagged ClpC1-NTD substrate ([10]; cell-free, result in words): did not cause any degradation | % Response ([10]; conc. 0.4 µM): 106.994% and 100.864% and 100.549% and 126.212% and 118.079% and 125.703% and 101.139% and 105.018% and 104.304% | ClpC1-NTD peak area ([10]; conc. 0.4 µM): 974818 and 1343173 and 762481 and 700950 and 757234 and 818245 and 783567 and 770572 and 1135273 | % Response ([10]; conc. 33.3 µM): 107.525% and 103.829% and 103.089% and 121.205% and 120.164% and 127.4% and 120.436% and 100.085% and 97.8128% | ClpC1-NTD peak area ([10]; conc. 33.3 µM): 1099272 and 1301491 and 948418 and 890861 and 865884 and 830598 and 816002 and 754560 and 1171647 | % Response ([10]; conc. 100.0 µM): 99.5642% and 103.437% and 105.517% and 119.388% and 117.765% and 125.04% and 101.258% and 115.542% and 91.4636% | ClpC1-NTD peak area ([10]; conc. 100.0 µM): 1282982 and 1406378 and 1339163 and 984807 and 916165 and 1033433 and 896176 and 856679 and 1974349 | DC50 ([11]; Measurement 1-4, read-out: DC50, single measurements): > 100 µM | DC50 [11, 20]: > 100 µM | ClpC1 peak area ([12]; 100 µM, Figure 5c, well replicates of 3 experiments): 516046 and 317875 and 398263 and 302242 and 500156 and 40170.6 and 421518 and 401814 and 368135 | intracellular degradation of ClpC1 ([12]; Msm #607, 24 h, result in words): did not induce degradation of ClpC1
